# Patent publication US20230085307A1, “PYRIDAZINONE COMPOUND AND HERBICIDE” (NISSAN CHEMICAL CORPORATION, priority 2019, published 2023)
# System: green foxtail
# Assay: Test Example 4: herbicidal effect by soil treatment (Table 19, symbol G)
# Assay type: in vivo, green foxtail (Setaria viridis)
# Conditions: amount of applied herbicide 320 g/ha
# Method in brief: (§1)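 Herbicidal effect was rated 3 weeks after treatment, using the scoring criteria of an earlier test. The compound, formulated as an emulsion and diluted in water to a set herbicide amount, had been sprayed uniformly on soil over freshly sown seeds. Growth took place in a greenhouse at 25° C. to 30° C.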
row,SMILES,"G: green foxtail, herbicidal effect grade"
1,COc1ccccc1-c1sc2cc(OC(F)F)ccc2c1-c1c(O)c(C)nn(C)c1=O [3-113],5 (Herbicidal rate of 90% or more (almost completely withered))
2,COc1ccccc1-c1sc2cc(OCc3ccccc3)ccc2c1-c1c(O)c(C)nn(C)c1=O [3-118],0 (Herbicidal rate of 5% or less (almost no effect))

# System: blackgrass
# Assay: Test Example 4: herbicidal effect by soil treatment (Table 19, symbol J)
# Assay type: in vivo, blackgrass (Alopecurus myosuroides)
# Conditions: amount of applied herbicide 320 g/ha
# Method in brief: as §1
row,SMILES,"J: blackgrass, herbicidal effect grade"
1,COc1ccccc1-c1sc2cc(OC(F)F)ccc2c1-c1c(O)c(C)nn(C)c1=O [3-113],4 (Herbicidal rate of 70% or more and less than 90%)
2,COc1ccccc1-c1sc2cc(OCc3ccccc3)ccc2c1-c1c(O)c(C)nn(C)c1=O [3-118],0 (Herbicidal rate of 5% or less (almost no effect))

# System: persian speedwell
# Assay: Test Example 5: herbicidal effect by foliage application, plastic box (Table 20, symbol R)
# Assay type: in vivo, Persian speedwell (Veronica persica)
# Conditions: foliage application, 320 g/ha, three weeks after application
# Method in brief: (§2)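 Foliar spray test: emulsion formulation diluted in water to a set application rate, sprayed onto 14-day-old plants raised in diluvial soil at 25° C to 30° C under glass. Both herbicidal effect and crop effect rated visually three weeks later.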
row,SMILES,"R: persian speedwell, herbicidal effect grade"
1,COc1ccccc1-c1sc2cc(OC(F)F)ccc2c1-c1c(O)c(C)nn(C)c1=O [3-113],5 (Herbicidal rate of 90% or more (almost completely withered))
2,COc1ccccc1-c1sc2cc(OCc3ccccc3)ccc2c1-c1c(O)c(C)nn(C)c1=O [3-118],5 (Herbicidal rate of 90% or more (almost completely withered))

# System: barnyard grass
# Assay: Test Example 3: herbicidal effect by foliage application, Wagner pot (Table 18, symbol H)
# Assay type: in vivo, barnyard grass (Echinochloa crus-galli)
# Conditions: 320 g/ha
# Method in brief: (§3)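 Plants were sown in alluvial soil held under 0.1–0.5 cm standing water and grown 14 days in a greenhouse at 25–30 °C. An emulsifiable formulation, water-diluted to the set dose, was then sprayed onto the foliage, and effects were scored three weeks later using previously defined criteria.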
row,SMILES,herbicidal effect on barnyard grass (H)
1,COc1ccccc1-c1sc2cc(OC(F)F)ccc2c1-c1c(O)c(C)nn(C)c1=O [3-113],5 (Herbicidal rate of 90% or more (almost completely withered))
2,COc1ccccc1-c1sc2cc(OCc3ccccc3)ccc2c1-c1c(O)c(C)nn(C)c1=O [3-118],4 (Herbicidal rate of 70% or more and less than 90%)

# System: blackgrass
# Assay: Test Example 5: herbicidal effect by foliage application, plastic box (Table 20, symbol J)
# Assay type: in vivo, blackgrass (Alopecurus myosuroides)
# Conditions: foliage application, 320 g/ha, three weeks after application
# Method in brief: as §2
row,SMILES,"J: blackgrass, herbicidal effect grade"
1,COc1ccccc1-c1sc2cc(OC(F)F)ccc2c1-c1c(O)c(C)nn(C)c1=O [3-113],5 (Herbicidal rate of 90% or more (almost completely withered))
2,COc1ccccc1-c1sc2cc(OCc3ccccc3)ccc2c1-c1c(O)c(C)nn(C)c1=O [3-118],4 (Herbicidal rate of 70% or more and less than 90%)

# System: chickweed
# Assay: Test Example 4: herbicidal effect by soil treatment (Table 19, symbol P)
# Assay type: in vivo, common chickweed (Stellaria media)
# Conditions: amount of applied herbicide 320 g/ha
# Method in brief: as §1
row,SMILES,"P: chickweed, herbicidal effect grade"
1,COc1ccccc1-c1sc2cc(OC(F)F)ccc2c1-c1c(O)c(C)nn(C)c1=O [3-113],5 (Herbicidal rate of 90% or more (almost completely withered))
2,COc1ccccc1-c1sc2cc(OCc3ccccc3)ccc2c1-c1c(O)c(C)nn(C)c1=O [3-118],0 (Herbicidal rate of 5% or less (almost no effect))

# System: late watergrass
# Assay: Test Example 1: herbicidal activity, application before weed generation under submerged conditions (Table 16, symbol A)
# Assay type: in vivo, late watergrass (Echinochloa oryzicola)
# Conditions: amount of applied herbicide 320 g/ha
# Method in brief: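 Emulsion formulation, water-diluted to set dose, was put onto the flooded surface (4 cm depth, alluvial soil) the same day weeds were sown and 2.5-leaf rice transplanted. After 3 weeks at 25-30 °C under glass, each species was rated 0 (≤5% kill) to 5 (≥90% kill).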
row,SMILES,"Herbicidal effect, A: late watergrass"
1,COc1ccccc1-c1sc2cc(OC(F)F)ccc2c1-c1c(O)c(C)nn(C)c1=O [3-113],4 (Herbicidal rate of 70% or more and less than 90%)
2,COc1ccccc1-c1sc2cc(OCc3ccccc3)ccc2c1-c1c(O)c(C)nn(C)c1=O [3-118],3 (Herbicidal rate of 40% or more and less than 70%)

# System: redroot pigweed
# Assay: Test Example 5: herbicidal effect by foliage application, plastic box (Table 20, symbol N)
# Assay type: in vivo, redroot pigweed (Amaranthus retroflexus)
# Conditions: foliage application, 320 g/ha, three weeks after application
# Method in brief: as §2
row,SMILES,"N: redroot pigweed, herbicidal effect grade"
1,COc1ccccc1-c1sc2cc(OC(F)F)ccc2c1-c1c(O)c(C)nn(C)c1=O [3-113],5 (Herbicidal rate of 90% or more (almost completely withered))
2,COc1ccccc1-c1sc2cc(OCc3ccccc3)ccc2c1-c1c(O)c(C)nn(C)c1=O [3-118],5 (Herbicidal rate of 90% or more (almost completely withered))

# System: green foxtail
# Assay: Test Example 5: herbicidal effect by foliage application, plastic box (Table 20, symbol G)
# Assay type: in vivo, green foxtail (Setaria viridis)
# Conditions: foliage application, 320 g/ha, three weeks after application
# Method in brief: as §2
row,SMILES,"G: green foxtail, herbicidal effect grade"
1,COc1ccccc1-c1sc2cc(OC(F)F)ccc2c1-c1c(O)c(C)nn(C)c1=O [3-113],5 (Herbicidal rate of 90% or more (almost completely withered))
2,COc1ccccc1-c1sc2cc(OCc3ccccc3)ccc2c1-c1c(O)c(C)nn(C)c1=O [3-118],3 (Herbicidal rate of 40% or more and less than 70%)

# System: southern crabgrass
# Assay: Test Example 5: herbicidal effect by foliage application, plastic box (Table 20, symbol F)
# Assay type: in vivo, southern crabgrass (Digitaria ciliaris)
# Conditions: foliage application, 320 g/ha, three weeks after application
# Method in brief: as §2
row,SMILES,"F: southern crabgrass, herbicidal effect grade"
1,COc1ccccc1-c1sc2cc(OC(F)F)ccc2c1-c1c(O)c(C)nn(C)c1=O [3-113],1 (Herbicidal rate of 5% or more and less than 20%)
2,COc1ccccc1-c1sc2cc(OCc3ccccc3)ccc2c1-c1c(O)c(C)nn(C)c1=O [3-118],4 (Herbicidal rate of 70% or more and less than 90%)

# System: windgrass
# Assay: Test Example 4: herbicidal effect by soil treatment (Table 19, symbol L)
# Assay type: in vivo, windgrass (Apera spica-venti)
# Conditions: amount of applied herbicide 320 g/ha
# Method in brief: as §1
row,SMILES,"L: windgrass, herbicidal effect grade"
1,COc1ccccc1-c1sc2cc(OC(F)F)ccc2c1-c1c(O)c(C)nn(C)c1=O [3-113],5 (Herbicidal rate of 90% or more (almost completely withered))
2,COc1ccccc1-c1sc2cc(OCc3ccccc3)ccc2c1-c1c(O)c(C)nn(C)c1=O [3-118],3 (Herbicidal rate of 40% or more and less than 70%)

# System: oval-leafed pondweed
# Assay: Test Example 2: herbicidal activity, application during weed generation under submerged conditions (Table 17, symbol C)
# Assay type: in vivo, oval-leafed pondweed (Monochoria vaginalis)
# Conditions: AAH 320 g/ha; application during weed generation, submerged conditions
# Method in brief: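 In this pot test, flooded alluvial soil (water depth 4 cm) holds all three species sown as a mixture. Once seedlings have one to two leaves, the compound's emulsion, thinned with water to the intended dose, is poured on the water; grading follows after three weeks on the earlier criteria.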
row,SMILES,"herbicidal effect rating, C: oval-leafed pondweed"
1,COc1ccccc1-c1sc2cc(OC(F)F)ccc2c1-c1c(O)c(C)nn(C)c1=O [3-113],0 (Herbicidal rate of 5% or less (almost no effect))
2,COc1ccccc1-c1sc2cc(OCc3ccccc3)ccc2c1-c1c(O)c(C)nn(C)c1=O [3-118],0 (Herbicidal rate of 5% or less (almost no effect))

# System: barnyard grass
# Assay: Test Example 4: herbicidal effect by soil treatment (Table 19, symbol H)
# Assay type: in vivo, barnyard grass (Echinochloa crus-galli)
# Conditions: amount of applied herbicide 320 g/ha
# Method in brief: as §1
row,SMILES,"H: barnyard grass, herbicidal effect grade"
1,COc1ccccc1-c1sc2cc(OC(F)F)ccc2c1-c1c(O)c(C)nn(C)c1=O [3-113],5 (Herbicidal rate of 90% or more (almost completely withered))
2,COc1ccccc1-c1sc2cc(OCc3ccccc3)ccc2c1-c1c(O)c(C)nn(C)c1=O [3-118],0 (Herbicidal rate of 5% or less (almost no effect))

# System: redroot pigweed
# Assay: Test Example 4: herbicidal effect by soil treatment (Table 19, symbol N)
# Assay type: in vivo, redroot pigweed (Amaranthus retroflexus)
# Conditions: amount of applied herbicide 320 g/ha
# Method in brief: as §1
row,SMILES,"N: redroot pigweed, herbicidal effect grade"
1,COc1ccccc1-c1sc2cc(OC(F)F)ccc2c1-c1c(O)c(C)nn(C)c1=O [3-113],5 (Herbicidal rate of 90% or more (almost completely withered))
2,COc1ccccc1-c1sc2cc(OCc3ccccc3)ccc2c1-c1c(O)c(C)nn(C)c1=O [3-118],3 (Herbicidal rate of 40% or more and less than 70%)

# System: Chinese sprangletop
# Assay: Test Example 3: herbicidal effect by foliage application, Wagner pot (Table 18, symbol D)
# Assay type: in vivo, chinese sprangletop (Leptochloa chinensis)
# Conditions: 320 g/ha
# Method in brief: as §3
row,SMILES,herbicidal effect on Chinese sprangletop (D)
1,COc1ccccc1-c1sc2cc(OC(F)F)ccc2c1-c1c(O)c(C)nn(C)c1=O [3-113],3 (Herbicidal rate of 40% or more and less than 70%)
2,COc1ccccc1-c1sc2cc(OCc3ccccc3)ccc2c1-c1c(O)c(C)nn(C)c1=O [3-118],0 (Herbicidal rate of 5% or less (almost no effect))

# System: southern crabgrass
# Assay: Test Example 4: herbicidal effect by soil treatment (Table 19, symbol F)
# Assay type: in vivo, southern crabgrass (Digitaria ciliaris)
# Conditions: amount of applied herbicide 320 g/ha
# Method in brief: as §1
row,SMILES,"F: southern crabgrass, herbicidal effect grade"
1,COc1ccccc1-c1sc2cc(OC(F)F)ccc2c1-c1c(O)c(C)nn(C)c1=O [3-113],4 (Herbicidal rate of 70% or more and less than 90%)
2,COc1ccccc1-c1sc2cc(OCc3ccccc3)ccc2c1-c1c(O)c(C)nn(C)c1=O [3-118],0 (Herbicidal rate of 5% or less (almost no effect))
